Patent publication US20230210845A1, “DOSING METHODS FOR TREATMENT OF CARDIOVASCULAR CONDITIONS” (IMBRIA PHARMACEUTICALS, INC., priority 2020, published 2023)
Read-outs that look alike come from different tables or passages of the source. Each block holds one molecule with its values, some of them ahead of it.

Legend:
[1] = clinical
Procedure: Subjects with R2 below 0.80 or %AUCextra>20% were not excluded from the dose-proportionality evaluation based on AUC0-inf. A point estimate and 95% CI were produced for the slope. […] Since there were only 2 dose levels in the MAD part, no dose-proportionality analysis was performed for the MAD part.

[2] = Procedure: Subjects received multiple oral doses of an IR formulation of IMB-1018972 or placebo once every 12 hours (q12h) for 14 consecutive days.
The doses were selected based upon the safety, tolerability, and PK data from the SAD part: • Group B1 multiple oral doses of an IR formulation of 150 mg IMB-1018972 (n=9) or matching placebo (n=3) twice daily (q12h) for 14 days; on Day 14 only a single morning dose was administered • Group B2: multiple oral doses of an IR formulation of 50 mg IMB-1018972 (n=9) or matching placebo (n=3) q12h for 14 days; on Day 14 only a single morning dose was administered
Before each morning dose, subjects fasted overnight for at least 10 hours following a snack on the evening before. On Days 1 and 14, subjects received a standardized breakfast that had to be consumed within 20 minutes. Dosing occurred at 30 minutes after the start of breakfast. Following dosing, subjects fasted for 4 hours until lunch. During fasting, fluids other than water were not allowed. On Days 2 to 13, breakfast was not standardized and was given within maximally 1 hour before dosing and consumed before dosing. No fasting after dosing was applicable on these days.

[3] = clinical; format: in vivo, human (healthy subjects); conditions: plasma; for Tmax: human, oral, 150 mg, read-out: median tmax
[4] = 28-day dog toxicology study (NOAEL and exposure); format: in vivo; conditions: for AUC0-8×2: Day 26, IMB-1018972 200 mg/kg/day
Procedure: Based on the nonclinical toxicology data, it was considered that subjects in this clinical study were not at unreasonable risk of adverse effects. […] For a 60-kg individual, the NOAEL dose would be 6480 mg. With a 10-fold safety factor applied, this would allow for a maximum recommended starting dose (MRSD) of 648 mg/day.7,8 The planned starting dose in the current Phase 1 study was 50 mg, equivalent to 0.83 mg/kg/day for a 60-kg subject. This starting dose is less than 10% of the MRSD determined from the dog NOAEL and less than 1% of the dog NOAEL.
The relevant animal study was the 28-day dog study where the NOAEL for IMB-1018972 was 200 mg/kg/day.

[5] = SAD part: PK in urine (urinary excretion, renal clearance); format: in vivo, human (healthy subjects); conditions: for CL renal: human, urine, read-out: geometric mean renal clearance (CLR) (converted)
[6] = clinical; design: species or system human (healthy subjects); conditions: human, in vivo, po, 35 mg
[7] = SAD part (and integrated FE arm): safety and tolerability (TEAEs)
[8] = MAD part: safety and tolerability (TEAEs); format: in vivo, human (healthy subjects)
[9] = FIH study overall safety (deaths, clinical laboratory, vital signs, ECG, telemetry, physical examination)
[10] = FIH study: plasma PK, single and multiple dose results combined; format: in vivo, human (healthy subjects); conditions: all blood samples of subjects that received IMB-1018972
[11] = 150 mg IMB-1018972, fasted (FE group)
[12] = 150 mg IMB-1018972, fed (FDA high-fat breakfast)
[13] = single oral dose 35 mg trimetazidine, all 4 TEAEs

Structure (SMILES): COc1ccc(CN2CCN(CCO)CC2)c(OC)c1OC [IMB-1028814]
dose proportionality for Cmax, AUC0-t, AUC0-inf (95% CIs of slopes included 1) ([1]; IMB-1018972 single-dose range 50 to 400 mg, fasted): no evidence of a deviation from dose proportionality
median tmax ([1]; plasma, single-dose range 50 mg to 400 mg IMB-1018972 IR, fasted): around 1 hours
state of concentrations at Day 14 dose (trough concentrations, visual inspection) ([2]; 150 mg fed and 50 mg fed q12h): steady-state conditions
geometric mean Cmax higher on Day 1 in MAD part than after single dose in SAD part ([2]; 150 mg fed in both parts): 97%
geometric mean t1/2 ([2]; Day 14 after 50 mg q12h fed): 2.79 h
geometric mean t1/2 ([2]; Day 14 after 150 mg q12h fed): 4.48 h
median tmax [3, 11]: 1 h
median tmax [3, 12]: 2 h
AUC0-8×2 ([4]; female dogs): 652,849 ng.h/mL
AUC0-8×2 ([4]; male dogs): 417,733 ng.h/mL

Tmax ([1]; human, in vivo): 1.5 to 2 h
time postdose at which detectable concentrations generally seen ([1]; human, in vivo): 15 to 30 min
Tmax ([1]; human, in vivo, po, 50 mg): 1 to 2 h
half-life ([1]; human, plasma, oral): 6.76 to 8 h
CL renal ([5]; oral, range over single doses 50 mg to 400 mg IMB-1018972): 302 to 347 mL/min
CL renal ([5]; po, 35 mg): 340 mL/min
arithmetic mean percent of the dose excreted in urine ([5]; within 48 hours after single oral dose of 35 mg trimetazidine): 54.47%
AUC(0-inf) [6]: 929 ng·h/mL
AUC(0-t) [6]: 912 ng·h/mL
Cmax [6]: 68.6 ng/mL
half-life [6]: 7.49 h
Tmax [3, 11]: 1.5 h
Tmax [3, 12]: 4 h
Structure (SMILES): COc1ccc(CN2CCNCC2)c(OC)c1OC [trimetazidine]
total number of TEAEs ([7]; single oral dose 35 mg trimetazidine): 4
relationship of TEAEs to study drug [7, 13]: not to be related to the study drug
severity of TEAEs [7, 13]: mild severity

Structure (SMILES): COc1ccc(CN2CCN(CCOC(=O)c3cccnc3)CC2)c(OC)c1OC [IMB-1018972]
TEAEs of flushing ([8]; 50 mg q12h fed): No TEAEs of flushing were reported
number of TEAEs of flushing (incidental and mild) ([8]; 150 mg q12h fed): 7
subjects with TEAEs of flushing ([8]; 150 mg q12h fed (n=9)): 6
subjects reporting drug-related TEAEs ([8]; MAD part (6 of 18)): 33.3%
subjects reporting TEAEs not related to the study drug ([8]; MAD part (11 of 18)): 61.1%
severity of TEAEs ([8]; MAD part, all TEAEs): mild severity
total number of TEAEs ([8]; all IMB-1018972 subjects of MAD part): 35
clinical laboratory, vital signs, 12-lead ECG, telemetry, physical examination ([9]; single and multiple oral doses, IR formulation): no findings of clinical relevance
deaths ([9]; whole study): no deaths reported
measurability of parent compound in plasma [10]: could be measured in only few plasma samples
maximum recommended starting dose (MRSD) ([4]; both, dog, in vivo, 28 days): 648 mg/day
effect of dosing under fed conditions on TEAEs ([7]; FE arm of SAD part, 150 mg): appeared to attenuate the number and incidence of TEAEs
TEAEs of flushing of mild severity ([7]; SAD part): 1
TEAEs of flushing of moderate severity ([7]; SAD part): 5
number of TEAEs of flushing (most common AEs) ([7]; SAD part): 6
severe TEAEs ([7]; SAD part): No severe TEAEs were reported
subjects reporting drug-related TEAEs of flushing ([7]; SAD part (6 subjects)): 25%
subjects reporting drug-related TEAEs ([7]; SAD part (7 of 24)): 29.2%
serious adverse event leading to withdrawal ([7]; Subject 131, 150 mg fasted, FE arm Group A4, moderate, unlikely related): influenza like illness
total number of TEAEs ([7]; all IMB-1018972 subjects of SAD part): 45
drug-related TEAEs ([7]; following 50 mg and 150 mg (fasted only group)): No drug-related TEAEs were reported
subjects who reported flushing ([7]; single dose 150 mg fasted, FE arm (n=6)): 2
